Read-outs that look alike come from different tables or passages of the source.
Assays:
[1] = target: T1, BTK (Homo sapiens (Human), UniProt Q06187); experiment: In house ELISA kinase inhibition assay, BTK; format: biochemical; conditions: footnote b: from in house procedure (ELISA)
In short: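 ELISA with biotinylated peptide substrate at 20 μmol/L (ITK 30 μmol/L); kinases preincubated with compound 1 h at 25° C in HEPES pH 7.4, MgCl2, MnCl2, DTT, then 3 μmol/L ATP added for 2 h. Phosphoproduct captured on anti-phosphotyrosine antibody, detected with HRP-streptavidin/TMB at 450 nm; IC50 by curve fit.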

[2] = target: EGFR (Homo sapiens (Human), UniProt P00533); experiment: In house ELISA kinase inhibition assay, EGFR; format: biochemical; conditions: for IC50: in house ELISA; for Selectivity ratio: selectivity for BTK and EGFR
Description: (§1) BTK inhibition Assay and selectivity Assay The assay was conducted either a by a third party (Reaction Biology Corporation, PA, USA) or in house.
(§2) b) In House Procedure for BTK, BMX, EGFR and ITK:
(§3) Kinase inhibitory activities of compounds were evaluated using the Enzyme-linked immunosorbent assay (ELISA). The kinase enzyme of BTK, BMX, EGFR and ITK were purchased from Carna Bioscience (Kobe, Japan). A total of 10 ng/mL antiphosphotyrosine (PY713) antibody (abcam, Cambridge Science Park, UK) was precoated in 96-well ELISA plates. The kinase enzymes in each reaction well were set to BTK (101.25 ng/mL), BMX (90 ng/mL), EGFR (90 ng/mL) or ITK (120 ng/mL) and incubated with indicated drugs in 1× reaction buffer (50 mmol/L HEPES pH 7.4, 20 mmol/L MgCl2, 0.1 mmol/L MnCl2, 1 mmol/L DTT) containing 20 μmol/L (the final concentration of substrate in ITK reaction was 30 μmol/L) substrate (NH2-[…]-biotin) at 25° C. for 1 h. Then, a total of 3 μmol/L ATP was added and the reaction was continued for 2 h. The products of reaction were transferred into 96-well ELISA plates containing antibody and incubated at 25° C. for 30 min. After incubation, the wells were washed with PBS and then incubated with horseradish peroxidase (HRP)-conjugated streptavidin. The wells were visualized using 3,3′,5,5′-tetramethylbenzidine (TMB), and chromogenic reaction was ended with 2 mol/L H2SO4, the absorbance was read with a multimode plate reader (PerkinElmer, USA) at 450 nm. IC50 values and curve fits were obtained using Prism (GraphPad Software). (Table I-IV)

[3] = tested on: TMD-8; experiment: In-vitro antitumor activity assay (CellTiter-Glo cell antiproliferative activity); format: cell-based; conditions: Homo sapiens, TMD8, TMD-8 cells, 72 h
Description: In-Vitro Antitumor Activity Assay
Method: Reagent and procedure by Hefei PreceDo pharmaceuticals Co. Ltd.
Cell antiproliferative activity was evaluated by the CellTiter-Glo (Promega, USA) assay. Make 1000× compounds solution in DMSO, add 1 μl 1000× compounds to […] growth medium to make 20× compounds. Dilute cell suspensions in growth medium to desired density and 95 μl were taken to 96-well plate. Add 5 μl 20× compounds into 96-well plate according to the plate map. Final DMSO concentration in each well was 0.1%. Then the cell was incubated at 37° C., 5% CO2 for 72 h. Equilibrate the assay plate to room temperature before measurement. Add 20 μl of CellTiter-Glo© Reagent into each well. Mix contents for 2 minutes on an orbital shaker to induce cell lysis. Incubate at room temperature for 10 minutes to stabilize luminescent signal. Record luminescence using EnVision Multilabel Reader (PerkinElmer). Cell viability (CV %) was calculated relative to vehicle (DMSO) treated control wells using following formula: Cell viability (%)=(RLU compound−RLU blank)/(RLU control−RLU blank)*100%. The IC50 values were calculated using GraphPad Prism 6.0 software, fitting to a 4-parameter equation to generate concentration response curves. All assays were conducted with three parallel samples and three repetitions.

[4] = target: ITK (Homo sapiens (Human), UniProt Q08881); experiment: In house ELISA kinase inhibition assay, ITK; format: biochemical; conditions: for IC50: in house ELISA; for Selectivity ratio: selectivity for BTK and ITK
Description: as §1, §2, §3

[5] = target: BMX (Homo sapiens (Human), UniProt P51813); experiment: In house ELISA kinase inhibition assay, BMX; format: biochemical; conditions: for IC50: in house ELISA; for Selectivity ratio: selectivity for BTK and BMX
Description: as §1, §2, §3

[6] = Rat pharmacokinetic assay; format: in vivo
Description: Rat Pharmacokinetic Assay
Method: Reagent and Procedure by Hefei PreceDo Pharmaceuticals Co. Ltd.
Male Sprague-Dawley rats with 6-8 weeks of age were purchased from Beijing Vital River Laboratory Animal Technology Co., Ltd. Rats were randomly assigned with three rats per group. A single dose of compound 84 or 85 was administered by tail vein injection in iv group. In po group, compound 84 or 85 was orally. Blood samples (˜0.25 mL) were obtained by orbital venous plexus at 2 min (iv only), 5 min, 15 min, 1 h, 2 h, 4 h, 6 h, 8 h, 12 h and 24 h (po only) post dose. After centrifuged at 4000 rpm for 10 min at 4° C., plasma was collected and stored at −20° C. until determine by LC-MS/MS.

[7] = target: T1, BTK; experiment: BTK inhibition assay by Reaction Biology Corporation (33P-ATP, filter-binding); format: biochemical; conditions: footnote a: from Reaction Biology Corporation
Description: as §1
a) Reagent and Procedure by Reaction Biology Corporation:
Base Reaction buffer; 20 mM Hepes (pH 7.5), 10 mM MgCl2, 1 mM EGTA, 0.02%. Brij35, 0.02 mg/ml BSA, 0.1 mM Na3VO4, 2 mM DTT, 1% DMSO. Required cofactors were added individually to each kinase reaction. Compound handling: testing compounds were dissolved in 100% DMSO to specific concentration. The serial dilution was conducted by Integra Viaflo Assist in DMSO.
The substrate was prepared in freshly prepared reaction buffer of above and required cofactors were added to the substrate solution. The kinase was delivered to the substrate solution and the mixture was gently mixed. Testing compounds in 100% DMSO was added to the kinase reaction mixture by Acoustic technology (Echo550; nanoliter range) and the new mixture was incubated for 20 min at room temperature. Then ^33P-ATP (Specific activity 10 μCi/μl) was added to the reaction mixture to initiate the reaction and the mixture was incubated for 2 hours at room temperature. The radioactivity was detected by filter-binding method and the kinase activity data was expressed as the percent of remaining kinase activity in test sample compared to vehicle (dimethyl sulfoxide) reaction. IC50 values and curve fits were obtained using Prism (GraphPad Software). The result is outlined in Table-I

[8] = male, Sprague-Dawley, plasma, iv 5 mg/kg
[9] = male, Sprague-Dawley, plasma, iv 1 mg/kg

T1 sequence (Q06187 whole entry): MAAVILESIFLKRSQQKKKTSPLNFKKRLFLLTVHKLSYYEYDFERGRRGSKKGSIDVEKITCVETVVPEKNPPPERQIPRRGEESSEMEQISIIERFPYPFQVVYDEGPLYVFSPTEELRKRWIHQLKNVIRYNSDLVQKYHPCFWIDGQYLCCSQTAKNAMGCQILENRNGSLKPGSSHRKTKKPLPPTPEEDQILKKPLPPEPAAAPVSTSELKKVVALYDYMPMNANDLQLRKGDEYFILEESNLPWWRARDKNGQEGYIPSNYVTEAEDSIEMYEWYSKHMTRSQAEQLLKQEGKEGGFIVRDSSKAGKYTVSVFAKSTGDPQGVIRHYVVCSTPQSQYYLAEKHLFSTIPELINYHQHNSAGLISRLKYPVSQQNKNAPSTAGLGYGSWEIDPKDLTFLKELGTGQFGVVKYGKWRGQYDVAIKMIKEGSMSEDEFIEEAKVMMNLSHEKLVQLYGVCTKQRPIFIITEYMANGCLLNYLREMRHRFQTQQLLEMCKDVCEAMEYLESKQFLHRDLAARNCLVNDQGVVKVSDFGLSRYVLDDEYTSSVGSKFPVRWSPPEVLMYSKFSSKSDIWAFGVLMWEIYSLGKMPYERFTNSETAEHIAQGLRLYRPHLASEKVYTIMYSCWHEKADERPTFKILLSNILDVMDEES
Chain of BMX (P51813 whole entry): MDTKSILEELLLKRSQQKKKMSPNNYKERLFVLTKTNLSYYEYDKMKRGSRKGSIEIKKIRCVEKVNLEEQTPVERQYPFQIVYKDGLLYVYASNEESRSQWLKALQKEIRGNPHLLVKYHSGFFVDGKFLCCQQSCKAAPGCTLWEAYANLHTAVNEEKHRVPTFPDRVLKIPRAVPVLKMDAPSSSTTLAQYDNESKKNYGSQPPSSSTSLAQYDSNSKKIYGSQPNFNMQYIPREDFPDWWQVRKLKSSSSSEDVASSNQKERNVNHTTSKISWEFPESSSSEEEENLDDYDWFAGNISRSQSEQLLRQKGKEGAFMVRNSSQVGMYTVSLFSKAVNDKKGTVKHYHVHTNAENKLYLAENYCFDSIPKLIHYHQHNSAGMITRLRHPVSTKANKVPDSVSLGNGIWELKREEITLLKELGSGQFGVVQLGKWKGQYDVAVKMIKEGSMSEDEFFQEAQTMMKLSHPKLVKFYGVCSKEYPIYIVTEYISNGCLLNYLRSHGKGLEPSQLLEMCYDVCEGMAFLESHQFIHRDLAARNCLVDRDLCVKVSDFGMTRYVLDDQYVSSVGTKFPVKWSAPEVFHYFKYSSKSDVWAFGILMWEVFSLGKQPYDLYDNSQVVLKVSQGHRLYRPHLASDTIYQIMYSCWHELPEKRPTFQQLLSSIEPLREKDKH
Chain of EGFR (P00533 25-1210): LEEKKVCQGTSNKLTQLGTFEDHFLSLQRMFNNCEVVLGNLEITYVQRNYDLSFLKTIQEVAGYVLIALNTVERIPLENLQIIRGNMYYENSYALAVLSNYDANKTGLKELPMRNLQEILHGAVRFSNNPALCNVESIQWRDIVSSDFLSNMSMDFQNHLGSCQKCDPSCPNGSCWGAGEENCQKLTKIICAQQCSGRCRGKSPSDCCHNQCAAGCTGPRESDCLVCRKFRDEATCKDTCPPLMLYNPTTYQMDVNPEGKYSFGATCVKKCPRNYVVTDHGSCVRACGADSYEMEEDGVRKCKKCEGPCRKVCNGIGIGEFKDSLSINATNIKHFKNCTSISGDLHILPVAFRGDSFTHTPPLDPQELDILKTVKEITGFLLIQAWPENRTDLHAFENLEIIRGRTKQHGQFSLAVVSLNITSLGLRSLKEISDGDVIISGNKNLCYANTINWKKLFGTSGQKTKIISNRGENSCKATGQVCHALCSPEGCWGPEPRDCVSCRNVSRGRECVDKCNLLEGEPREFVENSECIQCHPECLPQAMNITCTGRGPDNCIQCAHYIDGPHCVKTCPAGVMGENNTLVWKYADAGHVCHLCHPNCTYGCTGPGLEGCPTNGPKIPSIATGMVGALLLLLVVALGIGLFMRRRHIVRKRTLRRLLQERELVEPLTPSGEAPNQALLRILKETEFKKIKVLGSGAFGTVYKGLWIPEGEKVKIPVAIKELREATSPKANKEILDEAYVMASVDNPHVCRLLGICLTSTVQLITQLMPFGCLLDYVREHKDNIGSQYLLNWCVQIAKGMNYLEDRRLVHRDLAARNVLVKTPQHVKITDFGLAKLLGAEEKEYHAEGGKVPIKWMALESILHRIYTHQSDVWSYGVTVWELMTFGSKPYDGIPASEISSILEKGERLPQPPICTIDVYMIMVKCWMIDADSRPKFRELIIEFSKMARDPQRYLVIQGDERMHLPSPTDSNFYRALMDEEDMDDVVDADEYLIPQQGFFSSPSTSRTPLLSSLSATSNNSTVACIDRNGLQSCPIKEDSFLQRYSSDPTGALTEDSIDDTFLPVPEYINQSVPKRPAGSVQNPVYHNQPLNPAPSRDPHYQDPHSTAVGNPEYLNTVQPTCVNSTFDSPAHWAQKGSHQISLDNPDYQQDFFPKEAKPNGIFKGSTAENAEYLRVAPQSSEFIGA
Chain of ITK (Q08881 whole entry): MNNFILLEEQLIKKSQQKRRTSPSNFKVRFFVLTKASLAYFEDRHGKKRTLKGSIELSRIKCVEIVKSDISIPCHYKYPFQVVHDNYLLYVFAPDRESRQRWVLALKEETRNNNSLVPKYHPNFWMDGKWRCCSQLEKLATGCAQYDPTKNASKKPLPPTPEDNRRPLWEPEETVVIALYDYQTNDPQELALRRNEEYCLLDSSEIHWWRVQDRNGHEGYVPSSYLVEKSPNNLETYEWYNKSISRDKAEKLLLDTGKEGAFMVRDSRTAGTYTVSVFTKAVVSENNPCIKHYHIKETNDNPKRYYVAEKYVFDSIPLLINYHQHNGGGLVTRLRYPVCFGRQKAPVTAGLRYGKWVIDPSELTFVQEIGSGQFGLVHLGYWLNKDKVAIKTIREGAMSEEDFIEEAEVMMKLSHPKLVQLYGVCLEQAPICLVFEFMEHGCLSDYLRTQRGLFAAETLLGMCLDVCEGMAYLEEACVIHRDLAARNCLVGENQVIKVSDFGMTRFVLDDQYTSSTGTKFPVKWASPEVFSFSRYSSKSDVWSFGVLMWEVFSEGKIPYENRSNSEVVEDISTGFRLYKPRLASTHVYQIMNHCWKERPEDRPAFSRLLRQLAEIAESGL

Structure (SMILES) | IC50 [1] | IC50 [2] | Selectivity ratio [2] | IC50 [3] | IC50 [4] | Selectivity ratio [4] | IC50 [5] | Selectivity ratio [5] | IC50 [7] | further results
C=CC(=O)N1CCCC[C@H]1c1nc(-c2ccc(C(=O)Nc3cc(C(F)(F)F)ccn3)cc2)c(C(N)=O)n1N [Example 84, (S)-2-(1-acryloylpiperidin-2-yl)-1-amino-4-(4-((4-(trifluoromethyl)pyridin-2-yl)carbamoyl)phenyl)-1H-imidazole-5-carboxamide] | 3.46 nM | 156 nM | 45 | 24.5 nM | 608 nM | 175.6 | 114 nM | 33.0 |  | CL ([6]; iv 5 mg/kg): 13.4 mL/min/kg; T1/2 ([6]; iv 5 mg/kg): 1.32 h; Vd ([6]; iv 5 mg/kg): 1.50 L/kg; clearance [6, 8]: 13.4 mL/min/kg; half-life [6, 8]: 1.32 h; AUC ([6]; male, Sprague-Dawley, plasma, po 5 mg/kg, read-out: AUC): 2000 ng·h/mL; Cmax ([6]; male, Sprague-Dawley, plasma, po 5 mg/kg, read-out: Cmax): 501 ng/mL; AUC ([6]; po 5 mg/kg): 1996 ng·h/mL; Cmax ([6]; po 5 mg/kg): 501 ng/mL; F ([6]; po 5 mg/kg): 32.4%; T1/2 ([6]; po 5 mg/kg): 1.35 h
CC#CC(=O)N1CCCC[C@H]1c1nc(-c2ccc(C(=O)Nc3cc(C(F)(F)F)ccn3)cc2)c(C(N)=O)n1N [Example 85, (S)-1-amino-2-(1-(but-2-ynoyl)piperidin-2-yl)-4-(4-((4-(trifluoromethyl)pyridin-2-yl)carbamoyl)phenyl)-1H-imidazole-5-carboxamide] | 7.29 nM | 11800 nM | 1619 | 54.3 nM | 30000 nM | 4115 | 789 nM | 108.2 |  | clearance [6, 9]: 50 mL/min/kg; half-life [6, 9]: 1.97 h; Vd ([6]; male, Sprague-Dawley, plasma, iv 1 mg/kg, read-out: Vd): 8.62 L/kg; half-life ([6]; male, Sprague-Dawley, plasma, po 10 mg/kg): 2.74 h; AUC ([6]; male, Sprague-Dawley, plasma, po 10 mg/kg, read-out: AUC): 3250 ng·h/mL; Cmax ([6]; male, Sprague-Dawley, plasma, po 10 mg/kg, read-out: Cmax): 723 ng/mL; AUC ([6]; po 10 mg/kg): 3247 ng·h/mL; F ([6]; po 10 mg/kg): 90.6%; T1/2 ([6]; po 10 mg/kg): 2.74 h

Further lines, with some results ahead:

IC50 [1] | IC50 [2] | Selectivity ratio [2] | IC50 [3] | IC50 [4] | Selectivity ratio [4] | IC50 [5] | Selectivity ratio [5] | IC50 [7] | Structure (SMILES) | further results
19.4 nM | 3980 nM | 206 | 37 nM | 16500 nM | 850 | 1080 nM | 55.8 |  | CC#CC(=O)N1CCCC[C@H]1c1nc(-c2ccc(C(=O)Nc3cc(Cl)ccn3)cc2)c(C(N)=O)n1N [Example 98, (S)-1-amino-2-(1-(but-2-ynoyl)piperidin-2-yl)-4-(4-((4-chloropyridin-2-yl)carbamoyl)phenyl)-1H-imidazole-5-carboxamide] | 
 | 4680 nM | 439 | 35.1 nM | 532 nM | 49.9 | 226 nM | 21.2 | 10.7 nM | CC#CC(=O)N1CCCC[C@H]1c1nc(-c2ccc(C(=O)Nc3cc(I)ccn3)cc2)c(C(N)=O)n1N [Example 90, (S)-1-amino-2-(1-(but-2-ynoyl)piperidin-2-yl)-4-(4-((4-iodopyridin-2-yl)carbamoyl)phenyl)-1H-imidazole-5-carboxamide] | 
 | 1090 nM | 74 | 90.8 nM | 33100 nM | 2255 | 154 nM | 10.5 | 14.7 nM | CC#CC(=O)N1CCCC[C@H]1c1nc(-c2ccc(C(=O)Nc3cc(-c4ccc(F)cc4)ccn3)cc2)c(C(N)=O)n1N [Example 92, (S)-1-amino-2-(1-(but-2-ynoyl)piperidin-2-yl)-4-(4-((4-(4-fluorophenyl)pyridin-2-yl)carbamoyl)phenyl)-1H-imidazole-5-carboxamide] | 
